Results taken from patent US4371544A, “Pharmaceutical composition containing 1,1,3,5-substituted biuret compound” (Taiho Pharmaceutical Company Limited, priority 1979, dated 1983).
Where two headings read alike, the source gives them in different places.

Columns and labels:
[1] = Acute toxicity (oral, mice, 7 days observation); assay type: in vivo; settings: mouse, in vivo; oral, male ddy mice, 7 days observation; Δ mark; read-out: 50% lethal dose, LD50
How it was run: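 Overnight-fasted male ddy mice (20-25 g) received compound orally as a suspension in 0.25% carboxymethylcellulose, observed 7 days. Lethal dose (mg/kg) taken from deaths per mice tested; LD50 given where marked.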

[2] = system: ddy strain of male mice; test: Analgesic activity, acetic acid-induced stretching method; assay type: in vivo, mouse (ddy); settings: Mus musculus; for inhibition in vivo at 100 mg/kg: po, read-out: Analgesic activity, acetic acid-induced stretching method, inhibitory ratio
How it was run: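 Fasted male mice (20-25 g) received test compound orally, usually 100 mg/kg, as a 0.25% carboxymethylcellulose suspension, then 0.2 ml 0.7% acetic acid i.p. 1 hour later. Stretching was scored and activity given as % inhibition; some values are ED50 (mg/kg).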

[3] = system: ddy strain of male mice; test: Analgesic activity, Haffner method (morphine threshold dose, clamp); assay type: in vivo, mouse (ddy); settings: Mus musculus; for inhibition in vivo at 100 mg/kg: 100 mg/kg oral, 45 minutes before morphine hydrochloride, read-out: Analgesic activity, Haffner method, inhibitory ratio
How it was run: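 Fasted male ddy mice weighing 20-25 g were given the test compound orally as a suspension in 0.25% carboxymethylcellulose. After 45 minutes, a threshold dose (1.5-2.5 mg/kg body weight) of morphine hydrochloride was injected subcutaneously, and clamp-induced pain reactions were watched for 1 hour. Analgesic activity was expressed as inhibitory ratio (%) or as ED50.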

[4] = system: Wistar strain of male rats; test: Anti-pyretic activity (dry-yeast-induced fever); assay type: in vivo, rat (Wistar); settings: oral (dose not given), up to 4 hours after administration
How it was run: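 Male Wistar rats (150–180 g), fasted overnight, given 10% dry-yeast suspension subcutaneously (1 ml/100 g). Compound dosed orally as 0.25% CMC suspension 5 h later; body temperature followed, febrile index integrated to 4 h post-dose and expressed as % inhibition.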

[5] = system: Wistar strain of male rats; test: Anti-inflammatory activity (acute carrageenin-induced inflammatory test, hindpaw); assay type: in vivo, rat (Wistar); settings: Rattus norvegicus, read-out: Anti-inflammatory activity, inflammation inhibitory ratio
Method: Next, several tests for determining the pharmacological properties, in that acute toxicity, anti-pyretic activity, analgesic activity and anti-inflammatory activity of the present 1,1,3,5-substituted biuret compounds of the formula (1) were conducted and the test results are shown in Table (2). In the tests, each compounds to be tested was used as a suspension in 0.25% carboxymethylcellulose solution. Methods for testing are explained as follows:
According to the method of acute carrageenin-induced inflammatory test [Folia Pharmacologia Japonica, Vol. 56, pp. 575 (1960)], the Wistar strain of male rats (body weight, 150-180 g) were used as test animals. The rats were fasted overnight, 100 mg/kg body weight of the test compound was administered orally, then 1 hour after the administration, 0.1 ml of 1% carrageenin solution, as the inflammation inducing agent, was injected subcutaneously to the hindpaw of the rat and the volume of the hindpaw was measured at time sequences, Anti-inflammatory activity of the test compound was calculated as inflammation inhibitory ratio (%) at 3 hours after the injection of inflammation inducing agent.

[6] = oral, Δ mark, range in parentheses
[7] = 100 mg/kg oral, 3 hours after carrageenin

## CNC(=O)N(C)C(=O)N(C)c1ccccc1 [Compound No. 53, 1,3,5-Trimethyl-1-phenylbiuret]
[1]
  LD50 at 168 h: 1350 mg/kg
[2]; [6]
  ED50: 68 mg/kg
[3]; [6]
  ED50: 135 mg/kg
[4]
  Anti-pyretic activity, inhibitory ratio (febril index): 108%
[5]; [7]
  inhibition in vivo at 100 mg/kg: 76%

## CCN(C(=O)N(C)C(=O)NC)c1ccccc1 [Compound No. 58, 1-ethyl-3,5-dimethyl-1-phenylbiuret]
[1]
  LD50 at 168 h: 1000 mg/kg
[2]
  inhibition in vivo at 100 mg/kg: 75%
[3]
  inhibition in vivo at 100 mg/kg: 62.5%
[4]
  Anti-pyretic activity, inhibitory ratio (febril index): 137%
[5]; po, 3 h
  inhibition in vivo at 100 mg/kg: 60%

## CCN(C(=O)N(C)C(=O)NC)c1ccc(OC)cc1 [Compound No. 61, 1-Ethyl-1-(4-methoxyphenyl)-3,5-dimethylbiuret]
[1]
  LD50 at 168 h: 1250 mg/kg
[2]
  inhibition in vivo at 100 mg/kg: 75%
[3]
  inhibition in vivo at 100 mg/kg: 25%
[4]
  Anti-pyretic activity, inhibitory ratio (febril index): 35%
[5]; [7]
  inhibition in vivo at 100 mg/kg: 52%

## CCNC(=O)NC(=O)N(C)c1ccccc1 [compound 50, 1-Methyl-1-phenyl-5-ethylbiuret]
[1]
  LD50 at 168 h: 1960 mg/kg
[2]
  inhibition in vivo at 100 mg/kg: 50%
[3]
  inhibition in vivo at 100 mg/kg: 37.5%
[4]
  Anti-pyretic activity, inhibitory ratio (febril index): 90%
[5]; [7]
  inhibition in vivo at 100 mg/kg: 38%

## CCNC(=O)N(C)C(=O)N(C)c1ccccc1 [compound 54, 1,3-Dimethyl-1-phenyl-5-ethylbiuret]
[1]
  LD50 at 168 h: 1350 mg/kg
[2]
  inhibition in vivo at 100 mg/kg: 37.5%
[3]
  inhibition in vivo at 100 mg/kg: 75%
[4]
  Anti-pyretic activity, inhibitory ratio (febril index): 58%
[5]; [7]
  inhibition in vivo at 100 mg/kg: 54%

## CC(C)NC(=O)N(C)C(=O)N(C)c1ccccc1 [compound 56, 1,3-Dimethyl-1-phenyl-5-isopropylbiuret]
[1]
  LD50 at 168 h: 1320 mg/kg
[2]
  inhibition in vivo at 100 mg/kg: 25%
[3]
  inhibition in vivo at 100 mg/kg: 12.5%
[4]
  Anti-pyretic activity, inhibitory ratio (febril index): 65%
[5]; po, 3 h
  inhibition in vivo at 100 mg/kg: 47%

## CCN(C(=O)N(C)C(=O)NC)c1ccccc1Cl [compound 59, 1-Ethyl-1-(2-chlorophenyl)-3,5-dimethylbiuret]
[1]
  LD50 at 168 h: 810 mg/kg
[2]
  inhibition in vivo at 100 mg/kg: 37.5%
[3]
  inhibition in vivo at 100 mg/kg: 12.5%
[4]
  Anti-pyretic activity, inhibitory ratio (febril index): 64%
[5]; po, 2 h
  inhibition in vivo at 100 mg/kg: 51%
